Where “and” joins values, the source holds several entries; their conditions need not be identical. Equal entries are not always repeated.
Key:
[1] = target: Fibroblast growth factor receptor 3 (Homo sapiens) (UniProt P22607); conditions: Compound concentration 20.0 uM, Protein concentration 2.0 uM, Result type QC Liability
Description: Thermal Shift Assay. Domain: start/stop: P449-E759

[2] = target: T1, Peregrin (Homo sapiens) (UniProt P55201); conditions: Compound concentration 20.0 uM, Protein concentration 2.0 uM, Result type QC Liability
T1 sequence (whole entry): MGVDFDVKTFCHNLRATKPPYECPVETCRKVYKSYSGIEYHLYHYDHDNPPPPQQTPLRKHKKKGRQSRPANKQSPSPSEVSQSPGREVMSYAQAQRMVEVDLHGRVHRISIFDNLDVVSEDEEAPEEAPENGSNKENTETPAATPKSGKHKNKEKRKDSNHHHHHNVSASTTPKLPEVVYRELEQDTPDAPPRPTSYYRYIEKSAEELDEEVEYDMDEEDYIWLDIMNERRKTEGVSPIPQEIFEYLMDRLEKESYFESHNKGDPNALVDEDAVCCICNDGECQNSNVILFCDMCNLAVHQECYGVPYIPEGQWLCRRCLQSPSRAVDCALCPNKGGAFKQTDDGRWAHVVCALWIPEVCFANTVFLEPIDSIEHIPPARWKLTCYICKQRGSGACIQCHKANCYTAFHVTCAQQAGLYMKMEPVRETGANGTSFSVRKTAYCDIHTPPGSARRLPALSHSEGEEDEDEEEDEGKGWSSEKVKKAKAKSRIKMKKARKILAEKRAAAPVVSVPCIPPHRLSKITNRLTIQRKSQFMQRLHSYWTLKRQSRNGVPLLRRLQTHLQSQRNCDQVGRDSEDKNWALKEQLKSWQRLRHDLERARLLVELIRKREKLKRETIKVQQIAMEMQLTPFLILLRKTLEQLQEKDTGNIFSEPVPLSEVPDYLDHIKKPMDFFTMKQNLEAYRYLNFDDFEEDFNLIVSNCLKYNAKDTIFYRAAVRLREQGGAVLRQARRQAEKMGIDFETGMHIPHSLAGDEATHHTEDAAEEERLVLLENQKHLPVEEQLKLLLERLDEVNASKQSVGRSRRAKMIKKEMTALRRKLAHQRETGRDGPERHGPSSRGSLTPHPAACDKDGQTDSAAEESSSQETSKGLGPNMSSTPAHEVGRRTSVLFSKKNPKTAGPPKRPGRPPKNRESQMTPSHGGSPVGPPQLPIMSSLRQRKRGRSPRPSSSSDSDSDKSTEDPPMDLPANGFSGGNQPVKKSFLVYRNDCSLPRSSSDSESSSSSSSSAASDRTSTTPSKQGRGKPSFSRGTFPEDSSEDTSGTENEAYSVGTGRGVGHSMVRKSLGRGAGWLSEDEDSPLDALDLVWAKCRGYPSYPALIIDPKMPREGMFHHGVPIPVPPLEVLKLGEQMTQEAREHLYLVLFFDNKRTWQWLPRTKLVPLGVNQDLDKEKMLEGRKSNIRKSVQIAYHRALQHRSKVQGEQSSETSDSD

Fibroblast growth factor receptor 3 (Homo sapiens), sequence (P22607 23-806 limits assumed): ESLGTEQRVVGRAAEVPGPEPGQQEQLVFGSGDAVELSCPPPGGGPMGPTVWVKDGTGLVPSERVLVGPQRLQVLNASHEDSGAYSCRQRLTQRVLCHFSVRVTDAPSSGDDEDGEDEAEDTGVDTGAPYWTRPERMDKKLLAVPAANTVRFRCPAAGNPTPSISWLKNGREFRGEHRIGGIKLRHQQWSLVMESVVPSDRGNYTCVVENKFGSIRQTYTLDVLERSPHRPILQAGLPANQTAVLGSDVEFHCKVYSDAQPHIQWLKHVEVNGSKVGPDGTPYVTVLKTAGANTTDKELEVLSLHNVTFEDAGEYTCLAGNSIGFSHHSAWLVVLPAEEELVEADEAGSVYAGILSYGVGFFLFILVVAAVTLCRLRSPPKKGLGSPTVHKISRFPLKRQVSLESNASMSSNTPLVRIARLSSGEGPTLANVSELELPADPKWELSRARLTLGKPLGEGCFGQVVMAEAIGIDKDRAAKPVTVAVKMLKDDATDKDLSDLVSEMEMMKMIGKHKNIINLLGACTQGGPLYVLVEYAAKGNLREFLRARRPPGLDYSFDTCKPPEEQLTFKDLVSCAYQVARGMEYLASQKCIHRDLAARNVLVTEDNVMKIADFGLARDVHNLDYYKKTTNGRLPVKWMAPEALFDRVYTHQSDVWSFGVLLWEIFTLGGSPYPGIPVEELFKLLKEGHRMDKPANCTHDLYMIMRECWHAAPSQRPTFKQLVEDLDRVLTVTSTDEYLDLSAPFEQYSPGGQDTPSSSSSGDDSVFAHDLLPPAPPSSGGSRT

C[C@@H]1CC[C@@]2(OC1)O[C@H]1[C@@H](O)[C@H]3[C@@H]4CC[C@H]5C[C@@H](O[C@@H]6O[C@H](CO)[C@H](O[C@@H]7O[C@H](CO)C(O)[C@H](O[C@@H]8OC[C@@H](O)[C@H](O)[C@H]8O)[C@H]7O[C@@H]7O[C@H](CO)[C@H](O)[C@H](O[C@@H]8O[C@H](CO)[C@@H](O)[C@H](O)[C@H]8O)[C@H]7O)[C@H](O)[C@H]6O)[C@H](O)C[C@]5(C)[C@H]4CC[C@]3(C)[C@H]1[C@@H]2C (some centres not stated)
ΔTm [1]: 0.72 °C | ΔTm [2]: -1.35 °C

CN(C)CCCN1c2ccccc2Sc2ccc(Cl)cc21
ΔTm [1]: 0.65 °C | ΔTm [2]: -1.01 °C

Oc1c(CN2CCCC2)cc(COCc2ccccc2)c2cccnc12
ΔTm [1]: 0.61 °C | ΔTm [2]: -2.08 °C

CNC(=O)c1ccc2c(c1)ncn2-c1ccc(CC(=O)OC(C)(C)C)cc1
ΔTm [1]: 4.13 °C | ΔTm [2]: -1.38 °C

CS(=O)(=O)CCNCc1ccc(-c2ccc3ncnc(Nc4ccc(OCc5cccc(F)c5)c(Cl)c4)c3c2)o1
ΔTm [1]: 0.79 °C | ΔTm [2]: -1.41 °C

CN(C(=O)c1ccccc1)c1ccc2c(c1)[nH]/c(=N\C(=O)c1ccc(Br)s1)n2CCC(N)=O
ΔTm [1]: 4.52 °C | ΔTm [2]: -2.4 °C

CCOP(=O)(OCC)C(=Cc1cc(C(C)(C)C)c(O)c(C(C)(C)C)c1)P(=O)(OCC)OCC
ΔTm [1]: 0.83 °C | ΔTm [2]: -1.65 °C

Nc1nccc(-c2c(-c3ccc(F)cc3)ncn2C2CCN(Cc3ccon3)CC2)n1
ΔTm [1]: 0.95 °C | ΔTm [2]: -1.77 °C

O=c1[nH]c(CS[C@H]2CC[C@H](O)CC2)nc2cc(OCC3CC3)cc(F)c12
ΔTm [1]: 0.65 °C | ΔTm [2]: -0.45 °C

CCCNc1ccc2ncc(-c3ccncc3)n2n1
ΔTm [1]: 3.37 °C | ΔTm [2]: 0.26 °C

COc1cc(C(=O)NCCOCCOCCOCC(=O)N[C@H](C(=O)N2C[C@H](O)C[C@H]2C(=O)NCc2ccc(-c3scnc3C)cc2)C(C)(C)C)ccc1Nc1ncc(C(F)(F)F)c(Oc2cccc3c2C(=O)CC3)n1
ΔTm [1]: 1.52 °C | ΔTm [2]: -0.82 °C

c1ccc(C(OC2CCN(CCCc3nnn[nH]3)CC2)c2ccccc2)cc1
ΔTm [1]: 0.52 °C | ΔTm [2]: -2.95 °C

CCCCOc1c(C(=O)c2c(F)cc(C)cc2F)c[nH]c2nncc1-2
ΔTm [1]: 0.71 °C | ΔTm [2]: -1.13 °C

O=C(CCCN1CCC(O)(c2ccc(Cl)cc2)CC1)c1ccc(F)cc1
ΔTm [1]: 0.59 °C | ΔTm [2]: -1.6 °C

CCC(=O)N[C@H]1CC[C@@H](C(=O)N(C)c2ccc(-c3nc4ccccc4o3)cc2)C1
ΔTm [1]: 0.8 °C | ΔTm [2]: -2.71 °C

CC(C)(O)c1cn(-c2ccc(-c3cccc(S(C)(=O)=O)c3)cc2)c(C(C)(C)c2ccccc2Cl)n1
ΔTm [1]: -2.28 °C | ΔTm [2]: -1.46 °C

COc1cc(N[C@@H]2CCCC[C@]2(O)C(F)(F)F)ccc1F
ΔTm [1]: 0.65 °C | ΔTm [2]: -1.55 °C

Cc1nn(C)c(COc2ccc(N3CCN(S(=O)(=O)N(C)C)CC3)cc2)c1-c1cccc2c(CCCOc3cccc4ccccc34)c(C(=O)O)n(CCN3CCOCC3)c12
ΔTm [1]: 0.47 °C | ΔTm [2]: -2.4 °C

CN1CCN(c2ccc(Nc3ncc4cc5n(c4n3)C3(CCCCC3)CNC5=O)nc2)CC1
ΔTm [1]: 0.83 °C | ΔTm [2]: -1.56 °C

Cn1cc(-n2cnc3c(NCc4nc5cc(Cl)c(Cl)cc5[nH]4)nc(N4CCOCC4)nc32)cn1
ΔTm [1]: 0.69 °C | ΔTm [2]: -0.07 °C

CC(C)C(=O)N1CCC(c2cn(C)c3ncc(NC(=O)c4cccc(C#N)c4)c(C(F)(F)F)c23)CC1
ΔTm [1]: 0.79 °C | ΔTm [2]: 0.27 °C

Cc1cccc(CC(=O)N2CCc3c2ccc(-c2cn(C)c4ncnc(N)c24)c3F)n1
ΔTm [1]: -0.88 °C | ΔTm [2]: -2.12 °C

CCC(F)(F)c1cc(N2CCC(S(C)(=O)=O)CC2)nc2sc(C(N)=O)c(N)c12
ΔTm [1]: 0.83 °C and 0.75 °C and 1.17 °C | ΔTm [2]: -2.52 °C and -1.37 °C and -0.65 °C

C=C1/C(=C\C=C2/CCC[C@]3(C)[C@@H]([C@H](C)CCCC(C)(C)O)CC[C@@H]23)C[C@@H](O)C[C@@H]1O
ΔTm [1]: 1.25 °C | ΔTm [2]: -2.59 °C

COc1cc(C(=O)O)ncc1C#Cc1ccccc1NS(=O)(=O)c1cccc2c(N(C)C)ccnc12
ΔTm [1]: 0.5 °C | ΔTm [2]: -0.45 °C

Clc1ccc(-c2nc3sccn3c2/C=N/OCc2ccc(Cl)c(Cl)c2)cc1
ΔTm [1]: 0.55 °C | ΔTm [2]: -0.92 °C

CCN1CCN(Cc2ccc(C(=O)Nc3ccc(C)c(Oc4ccc5c(c4)CC(=O)N5)c3)cc2C(F)(F)F)CC1
ΔTm [1]: 3.22 °C | ΔTm [2]: -1.47 °C

Cc1cc(NC(=O)c2cccc(NC(=O)/C=C/CN(C)C)c2)ccc1Nc1nccc(-c2cccnc2)n1
ΔTm [1]: 1.04 °C | ΔTm [2]: -1.22 °C

Cc1cc(=O)oc2cc(NC(=O)[C@H](Cc3ccc(I)cc3)NC(=O)[C@H]3N[C@@H]4CC[C@H]3C4)ccc12
ΔTm [1]: 0.37 °C | ΔTm [2]: -1.46 °C

C[C@@H](CN1CC[C@@]2(C)c3cccc(O)c3C[C@@H]1C2(C)C)OCc1ccccc1
ΔTm [1]: 1.19 °C | ΔTm [2]: -1.96 °C

C[C@@H](Oc1cc(-n2cnc3ccc(OC4CCN(C)CC4)cc32)sc1C(N)=O)c1ccccc1Cl
ΔTm [1]: 3.37 °C | ΔTm [2]: 0.36 °C

NS(=O)(=O)c1ccc(Nc2nc(OCC3CCCCC3)c3nc[nH]c3n2)cc1
ΔTm [1]: 0.37 °C | ΔTm [2]: 1.2 °C

Cc1c(-c2c(F)cc(C(N)=O)c3[nH]c4c(c23)CC[C@H](C(C)(C)O)C4)cccc1-n1c(=O)c2cccc(F)c2n(C)c1=O
ΔTm [1]: -3.27 °C | ΔTm [2]: -3.49 °C

CC(C)Oc1ccc(Cc2ccc(NC3=NCCN3)cc2)cc1
ΔTm [1]: 0.39 °C | ΔTm [2]: -3.24 °C

COc1ncc(-c2cc(-c3ncc(CN4C[C@@H](C)O[C@@H](C)C4)o3)c3cn[nH]c3c2)cc1NS(C)(=O)=O
ΔTm [1]: 1.45 °C | ΔTm [2]: -0.2 °C

O=C1Nc2ccc(C(=O)c3ccco3)cc2C1=Cc1cc(Cl)c(O)c(Cl)c1
ΔTm [1]: 2.35 °C | ΔTm [2]: 0.59 °C

CCNC1=N[C@@H]2[C@@H](O)[C@H](O)[C@@H](CO)O[C@@H]2S1
ΔTm [1]: 0.73 °C | ΔTm [2]: 0.02 °C

CN(C)C(=O)c1cc2cnc(Nc3ccc(N4CCN(CCCCNC(=O)COc5cccc6c5C(=O)N(C5CCC(=O)NC5=O)C6=O)CC4)cn3)nc2n1C1CCCC1 (configuration not stated)
ΔTm [1]: 0.68 °C | ΔTm [2]: -1.94 °C

CN1CCCN(C(=O)c2cccc(-c3ccc(/C=C4/C(=O)Nc5ccc(Cl)cc54)o3)c2)CC1
ΔTm [1]: 2.18 °C | ΔTm [2]: -2.53 °C

Cc1nc2ccccc2c(-c2ccc3c4c(ccnc24)CCO3)c1[C@H](OC(C)(C)C)C(=O)O
ΔTm [1]: 0.36 °C | ΔTm [2]: -2.17 °C

CCN1C(=O)C(c2cccc(C(=O)O)c2)C(=O)N(c2ccccc2)c2cc(C(F)(F)F)ccc21 (configuration not stated)
ΔTm [1]: 0.62 °C | ΔTm [2]: -1.55 °C

COCCN(C)c1ccc(NC(=O)/C=C(\C)c2ccc3ccccc3c2)c(C(=O)O)c1
ΔTm [1]: 1.15 °C | ΔTm [2]: -1.83 °C

COc1cc(-c2cncc(-c3ccc(N4CCN(C(C)C)CC4)cc3)c2C)cc(F)c1C(N)=O
ΔTm [1]: 0.64 °C | ΔTm [2]: -1.51 °C

COc1ccccc1Nc1nc(-c2nn(Cc3c(F)cc(OCCCO)cc3F)c3ccccc23)ncc1OC
ΔTm [1]: 0.41 °C | ΔTm [2]: -1.09 °C

COc1c(OCCCN2CCOCC2)ccc2c1N=C(NC(=O)c1cnc(N)nc1)N1CCN=C21
ΔTm [1]: 0.63 °C | ΔTm [2]: -0.93 °C

COc1ccc(-c2c(-c3ccccc3)oc3ncnc(O[C@H](C)CCCCC(=O)O)c23)cc1
ΔTm [1]: -0.48 °C | ΔTm [2]: -6.64 °C

Cn1c(C2(NC(=O)c3ccc4c(C5CCCC5)c(-c5ncc(Br)cn5)n(C)c4c3)CCC2)nc2ccc(/C=C/C(=O)O)cc21
ΔTm [1]: -0.02 °C and -0.48 °C | ΔTm [2]: -4.81 °C and -4.1 °C

CCNC(=O)c1ccc2c(c1)NC(=O)/C2=C(\Nc1ccc(CN(C)C)cc1)c1ccccc1
ΔTm [1]: 1.15 °C and 1.47 °C | ΔTm [2]: -2.4 °C and -1.23 °C

CCCS(=O)(=O)N[C@H]1C[C@@H](N(C)c2ncnc3[nH]ccc23)C1
ΔTm [1]: 1.73 °C | ΔTm [2]: -1.75 °C

C/C(=C\C(=O)Nc1ccccc1C(=O)O)c1ccc2ccccc2c1
ΔTm [1]: 1.14 °C | ΔTm [2]: -1.56 °C

COc1cc(-c2nn([C@H]3CC[C@H](N4CCN(C(C)=O)CC4)CC3)c3ncnc(N)c23)ccc1NC(=O)c1cc2ccccc2n1C
ΔTm [1]: 0.83 °C | ΔTm [2]: -2.71 °C

CN(CCCCCCC1=C(c2cc(F)cc(F)c2)CCCc2cc(O)ccc21)CCCCS(=O)(=O)CCCC(F)(F)F
ΔTm [1]: 0.68 °C | ΔTm [2]: -1.47 °C

CS(=O)(=O)NC(=O)CCC/C=C\C[C@H]1C(=O)C[C@@H](O)[C@@H]1/C=C/[C@@H](O)COc1ccccc1
ΔTm [1]: 0.49 °C | ΔTm [2]: -1.73 °C

Cc1ccc(NC(=O)c2ccc(CN3CC[C@H](N(C)C)C3)c(C(F)(F)F)c2)cc1Nc1nccc(-c2cncnc2)n1
ΔTm [1]: 0.68 °C | ΔTm [2]: -3.14 °C

O=C(Cc1ccccc1[N+](=O)[O-])Nc1ccc(-c2ccc(C(O)(C(F)(F)F)C(F)(F)F)cc2F)cc1
ΔTm [1]: 1.47 °C | ΔTm [2]: 1.8 °C

Nc1nc(-c2nn(Cc3ccccc3F)c3ncccc23)ncc1C1CC1
ΔTm [1]: 1.14 °C | ΔTm [2]: -2.28 °C
